Test results as given in patent US20250282759A1, “POLYMORPHIC AND SALT FORMS OF THE AUTOTAXIN INHIBITOR CUDETAXESTAT” (Sabre Therapeutics LLC, priority 2022, published 2025).
“Also recorded” adds a separate entry of the source.

Columns and labels:
Format in all cases: physicochemical
[1] = Physical and chemical stability under 25° C./60% RH and 40° C./75% RH; conditions: for degradation and/or form change: 25° C./60% RH and 40° C./75% RH, one week; for Stability results (Open for 1 week) Form change: XRPD; for Initial Purity (area %): before storage
Procedure: Stability measurements were analyzed with a Waters H-Class ultra-performance liquid chromatography (UPLC) system using the conditions and parameters listed below.
Approximately 20 mg of a solid sample of each crystalline form was added to a HPLC vial (open dish) and then stored under 25° C./60% RH or 40° C./75% RH. After one week, the samples were removed from the test conditions and analyzed by HPLC and XRPD to assess chemical and physical stability, respectively.

[2] = Dynamic Vapor Sorption (DVS); conditions: for moisture uptake / hygroscopicity: 25° C./80% RH; for hygroscopicity: DVS
Procedure: Dynamic Vapor Sorption (DVS) analysis was conducted using a SMS (Surface Measurement Systems) DVS Intrinsic analyzer using the parameters listed below. [table]

[3] = Form E exposed to ambient condition; conditions: 5 hours
[4] = Competitive slurry of Form A and Form C of Compound 1; conditions: 2 days
Text: The obtained solids were isolated for XRPD analysis.

Row | Compound | degradation and/or form change [1] | Stability results (Open for 1 week) Appearance ([1]; 25° C./60% RH) | Stability results (Open for 1 week) Purity (area %) ([1]; 25° C./60% RH) | Stability results (Open for 1 week) Form change ([1]; 25° C./60% RH) | Stability results (Open for 1 week) Appearance ([1]; 40° C./75% RH) | Stability results (Open for 1 week) Purity (area %) ([1]; 40° C./75% RH) | Stability results (Open for 1 week) Form change ([1]; 40° C./75% RH) | Initial Purity (area %) [1] | moisture uptake [2] | hygroscopicity [2] | form change after DVS test ([2]; after DVS test) | form transfer on exposure to ambient condition [3] | XRPD Result ([4]; Acetone, water activity 0.0, room temperature) | XRPD Result ([4]; Acetone/H2O (605:395), water activity 0.8, room temperature) | XRPD Result ([4]; Acetone/H2O (858:142), water activity 0.6, room temperature) | XRPD Result ([4]; Acetone/H2O (950:50), water activity 0.4, room temperature) | XRPD Result ([4]; Acetone/H2O (986:14), water activity 0.2, room temperature) | XRPD Result ([4]; H2O, water activity 1.0, room temperature) | hygroscopicity ([2]; listed as crystalline Form 1)
1 | CCCn1cc(-n2c(Cl)c(Sc3cccc(C(=O)O)c3F)c3ccc(Cl)c(F)c32)cn1 [Form A] | no significant degradation and/or form change | No | 99.82 area % | No | No | 99.75 area % | No | 99.78 area % | – | – | – | – | – | – | – | – | – | – | –
2 | CCCn1cc(-n2c(Cl)c(Sc3cccc(C(=O)O)c3F)c3ccc(Cl)c(F)c32)cn1 [Form 3 of Compound 1-B] | no significant degradation and/or form change | No | 99.72 area % | No | No | 99.73 area % | No | 99.77 area % | 0.1% | non-hygroscopic | No form change | – | – | – | – | – | – | – | –
3 | CCCn1cc(-n2c(Cl)c(Sc3cccc(C(=O)O)c3F)c3ccc(Cl)c(F)c32)cn1 [Form E] | – | – | – | – | – | – | – | – | – | – | – | transferred back to Form A; also recorded: Freeform Type E transferred to freeform Type A after | – | – | – | – | – | – | –
4 | CCCn1cc(-n2c(Cl)c(Sc3cccc(C(=O)O)c3F)c3ccc(Cl)c(F)c32)cn1 [Form A + Form C] | – | – | – | – | – | – | – | – | – | – | – | – | Form C | Form A | Form A | Form C | Form C | Form A | –
5 | CCCn1cc(-n2c(Cl)c(Sc3cccc(C(=O)O)c3F)c3ccc(Cl)c(F)c32)cn1 [Form 1 of Compound 1-A] | no significant degradation and/or form change | No | 99.73 area % | No | No | 99.73 area % | No | 99.79 area % | 0.32% | slightly hygroscopic | – | – | – | – | – | – | – | – | slightly hygroscopic; also recorded: non-hygroscopic
